Measured values: patent US8106155B2, “Test kit for determining process for determining antibiotics containing a beta-lactam ring in a biological fluid” (Neogen Corporation, priority 1998, dated 2012)

Key:
BlaR-CTD receptor [1] = target: T1, BlaR-CTD receptor (Bacillus licheniformis, UniProt P12287); assay: 5-minute test: BlaR-CTD coupled to gold beads, membrane test device, milk; assay type: binding; conditions: test carried out in 5 minutes, 47° C.; positive when 1st band less intense than 2nd band
T1 construct: uses the BlaR-CTD receptor coupled to gold beads
Protocol: (§1) This example illustrates the detection in milk of antibiotics containing a β-lactam ring, which are controlled by the health authorities. The test described in this example uses the BlaR-CTD receptor coupled to gold beads which serve as labelling agents, and uses a support in the form of a test device comprising a solid support to which membranes are attached.
6 samples of fresh milk containing 0; 2; 4; 6; 8 and 10 ppb of cloxacillin, respectively, are prepared. Each of these solutions is then analyzed in the following way.
A 200 μl aliquot sample of milk and 45.27 μl of solution prepared in Example 1.1.3 are taken and placed in a glass flask. This mixture is incubated for 3 minutes at 47° C. A test device is taken and placed vertically in the glass flask such that the first end of the test device is in contact with the mixture and such that the second end rests on the wall of the glass flask. The mixture is left to migrate on the test device, while incubating the assembly for 2 minutes at 47° C.
An intensity value ranging from 0 to 10 is attributed to the bands detected, the value 10 being given to the most intense band and the value 0 being given to the least intense band. According to this scale, a value of 6 is assigned to the reference band. The intensity of the signal observed in the first band is inversely proportional to the amount of cloxacillin present in the sample.
(§2) In this example, when the first band has an intesity less than that of the second band, the test is considered as being positive.

BlaR-CTD receptor [2] = target: T1, BlaR-CTD receptor; assay: 9-minute test: BlaR-CTD coupled to gold beads, membrane test device, milk; assay type: binding; conditions: 47° C.; for concentration detected in a sample of milk: test carried out in 9 minutes, positive when 1st band less intense than 2nd band; for Intensity 1st band: 9-minute test, scale 0 to 10, reference band 6
Protocol: as §1
6 samples of fresh milk containing 0; 4; 6; 8; 10 and 12 ppb of cephapirin, respectively, are prepared. Each of these solutions is then analyzed in the following way.
A 200 μl aliquot sample of milk and 45.27 μl of solution prepared in Example 1.1.3 are taken and placed in a glass flask. This mixture is incubated for 7 minutes at 47° C. A test device is taken and placed vertically in the glass flask such that the first end of the test device is in contact with the mixture and such that the second end rests on the wall of the glass flask. The mixture is left to migrate on the test device, while incubating the assembly for 2 minutes at 47° C.
An intensity value ranging from 0 to 10 is attributed to the bands detected, the value 10 being given to the most intense band and the value 0 being given to the least intense band. According to this scale, a value of 6 is assigned to the reference band. The intensity of the signal observed in the first band is inversely proportional to the amount of cephapirin present in the sample.
as §2

[3] = target: T2, BlaR-CTD receptor in the form of a fusion protein with alkaline phosphatase or peroxidase (Bacillus licheniformis, UniProt P12287); assay: Example 4: BlaR-CTD fusion protein with alkaline phosphatase or peroxidase, coated tube, milk; assay type: binding; conditions: absorbance at 405 nm, 47° C.
T2 construct: uses the BlaR-CTD receptor in the form of a fusion protein with alkaline phosphatase or peroxidase
Protocol: The test described in this example uses the BlaR-CTD receptor in the form of a fusion protein with alkaline phosphatase or peroxidase, and uses a support in the form of a coated tube.
In this example, polystyrene tubes with high protein absorption of the brand name NUNK (Maxisorp type) are used, which are treated with a reference antibiotic solution as indicated in Example 3.3.2.
7 picomol of recognition agent are incubated in the presence of 500 μl of milk for 5 minutes at 47° C. in an Eppendorf tube. […] The milk is then incubated for 2 minutes at 47° C. After removing the milk, the tube is washed twice with 1 ml of 1 M, pH 9.8 diethanolamine buffer, 0.5 mM MgCl2. […] The absorbance of the supernatant is then measured using a spectrophotometer whose wavelength is set at 405 nm.

[4] = test system: protein isolated from an antibiotic-sensitive microorganism, such as Bacillus stearothermophilus; conditions: Example 1 of European Patent Application 593 112; cited from earlier work

T1 sequence (P12287 354-601): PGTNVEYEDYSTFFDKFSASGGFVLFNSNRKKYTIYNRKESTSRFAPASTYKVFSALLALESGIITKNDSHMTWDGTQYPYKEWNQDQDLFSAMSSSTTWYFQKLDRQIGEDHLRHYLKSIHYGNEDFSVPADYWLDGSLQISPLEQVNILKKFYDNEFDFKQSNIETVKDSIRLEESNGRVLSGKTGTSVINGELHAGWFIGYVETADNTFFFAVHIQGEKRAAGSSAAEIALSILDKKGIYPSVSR
T2 sequence (P12287 354-601): as above

| Compound | concentration detected in a sample of milk (BlaR-CTD receptor [1]) [ppb] | concentration detected in a sample of milk (BlaR-CTD receptor [2]) [ppb] | concentration determined in milk [3] | concentration detected [4] [ppb] | Intensity 1st band (BlaR-CTD receptor [2]; 4 ppb cephapirin in milk) | Intensity 1st band (BlaR-CTD receptor [2]; 6 ppb cephapirin in milk) | Intensity 1st band (BlaR-CTD receptor [2]; 8 ppb cephapirin in milk) | Intensity 1st band (BlaR-CTD receptor [2]; 10 ppb cephapirin in milk) | Intensity 1st band (BlaR-CTD receptor [2]; 12 ppb cephapirin in milk) |
| --- | --- | --- | --- | --- | --- | --- | --- | --- | --- |
| CO/N=C(\C(=O)N[C@@H]1C(=O)N2C(C(=O)O)=C(CSC(=O)c3ccco3)CS[C@H]12)c1csc(N)n1 [ceftiofur] | 100 | 80 | less than 50 ppb | 5 | – | – | – | – | – |
| CC(=O)OCC1=C(C(=O)O)N2C(=O)[C@@H](NC(=O)CSc3ccncc3)[C@H]2SC1 [cephapirin] | 16 | 6 | less than 20 ppb | 5 | 6 | 5 | 4 | 3 | 3 |
| CC1(C)S[C@@H]2[C@H](NC(=O)Cc3ccccc3)C(=O)N2[C@H]1C(=O)O [penicillin G] | 3 | 3 | less than 5 ppb | ~5 | – | – | – | – | – |
